Experimental data published in PMC8353826, “Celastrol exerts a neuroprotective effect by directly binding to HMGB1 protein in cerebral ischemia–reperfusion” (Journal of Neuroinflammation, 2021).

Columns and labels:
HMGB1 B box [1] = molecular target: T1, HMGB1 B box (Homo sapiens, UniProt P09429); assay: in-gel fluorescence labelling by probe, click TAMRA azide; type: binding; details: labelled compound; labelling in presence of IAA; PBS
T1 construct: B box domain, residues 90-175, N-terminal 6-His tag, modified pET-24d, E. coli BL21
T1 sequence (P09429 90-175): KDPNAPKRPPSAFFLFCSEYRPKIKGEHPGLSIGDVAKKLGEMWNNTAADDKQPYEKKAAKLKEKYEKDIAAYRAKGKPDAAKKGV

[2] = molecular target: T2, HMGB1 (primary rat cortical neurons) (Rattus norvegicus, UniProt P63159); assay: probe pull-down, TMT LC-MS/MS and Western blot; type: cell-based; details: labelled compound; 4 μM cel-p, 4 h, living neurons, with or without OGD
T2 construct: endogenous full-length protein in living primary cortical neurons or their lysate
T2 sequence (P63159 2-215): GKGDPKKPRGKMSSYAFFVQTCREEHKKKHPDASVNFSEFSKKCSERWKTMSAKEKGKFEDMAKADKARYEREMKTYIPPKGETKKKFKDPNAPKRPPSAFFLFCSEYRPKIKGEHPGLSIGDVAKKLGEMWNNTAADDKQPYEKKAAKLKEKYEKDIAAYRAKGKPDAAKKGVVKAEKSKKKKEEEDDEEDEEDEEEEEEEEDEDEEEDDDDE

HMGB1 A box [3] = molecular target: T3, HMGB1 A box (Homo sapiens, UniProt P09429); assay: in-gel fluorescence labelling by probe, click TAMRA azide; type: binding; details: labelled compound; labelling in presence of IAA; PBS
T3 construct: A box domain, residues 1-89, N-terminal 6-His tag, modified pET-24d, E. coli BL21
T3 sequence (P09429 1-89): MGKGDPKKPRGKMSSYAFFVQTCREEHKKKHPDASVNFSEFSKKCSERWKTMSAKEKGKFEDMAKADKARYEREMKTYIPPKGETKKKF

[4] = molecular target: T4, recombinant human HMGB1 protein (full-length) (Homo sapiens, UniProt P09429); assay: gel-based competition with IAA-yne labelling, click TAMRA fluorescence; type: binding; details: covalent; Cys 106 of disulfide form or Cys 23, 45, 106 of fully reduced form, also other sites; PBS
T4 construct: full-length recombinant protein, commercial (Abcam); disulfide form or DTT-reduced
T4 sequence (P09429 1-215): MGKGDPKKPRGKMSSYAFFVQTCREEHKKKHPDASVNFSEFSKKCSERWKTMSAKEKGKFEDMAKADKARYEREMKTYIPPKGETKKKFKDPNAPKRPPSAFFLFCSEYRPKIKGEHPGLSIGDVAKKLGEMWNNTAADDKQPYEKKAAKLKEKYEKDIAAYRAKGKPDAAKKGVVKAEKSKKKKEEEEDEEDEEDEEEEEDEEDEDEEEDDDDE

HMGB1 B box [5] = molecular target: T1, HMGB1 B box; assay: as above; type: binding; details: covalent; blocks IAA-yne labelling of Cys; PBS
HMGB1 A box [6] = molecular target: T3, HMGB1 A box; assay: as above; type: binding; details: covalent; blocks IAA-yne labelling of Cys; PBS
[7] = molecular target: T2, HMGB1 (primary rat cortical neurons); assay: CETSA in neuron lysate, Western blot; competition with cel-p pull-down; type: biochemical; details: 20 μM cel, 1 h, 37-82 °C (CETSA); 8 × cel in pull-down

| SMILES | in-gel fluorescence labelling by probe, click TAMRA azide (HMGB1 B box [1]) | probe pull-down, TMT LC-MS/MS and Western blot [2] | in-gel fluorescence labelling by probe, click TAMRA azide (HMGB1 A box [3]) | gel-based competition with IAA-yne labelling, click TAMRA fluorescence [4] | gel-based competition with IAA-yne labelling, click TAMRA fluorescence (HMGB1 B box [5]) | gel-based competition with IAA-yne labelling, click TAMRA fluorescence (HMGB1 A box [6]) | CETSA in neuron lysate, Western blot; competition with cel-p pull-down [7] |
| --- | --- | --- | --- | --- | --- | --- | --- |
| C#CCNC(=O)[C@]1(C)CC[C@]2(C)CC[C@]3(C)C4=CC=C5C(=CC(=O)C(O)=C5C)[C@]4(C)CC[C@@]3(C)[C@@H]2C1 [cel-p] | The binding of cel-p to the A and B boxes could not be blocked by IAA | could completely compete the binding of cel-p to HMGB1 | The binding of cel-p to the A and B boxes could not be blocked by IAA | – | – | – | – |
| CC1=C(O)C(=O)C=C2C1=CC=C1[C@@]2(C)CC[C@@]2(C)[C@@H]3C[C@](C)(C(=O)O)CC[C@]3(C)CC[C@]12C [cel, celastrol] | – | – | – | Cel almost completely competed for the binding of IAA-yne to HMGB1 or DTT reduced HMGB1 | Cel also almost completely blocked the binding of IAA-yne to the Cys group | Cel also almost completely blocked the binding of IAA-yne to the Cys group | The CETSA results also proved the direct binding of cel and HMGB1 |
